Usually EC50 stands for the concentration giving half of the maximal effect.

Chain of human APJ receptor (P35414 whole entry): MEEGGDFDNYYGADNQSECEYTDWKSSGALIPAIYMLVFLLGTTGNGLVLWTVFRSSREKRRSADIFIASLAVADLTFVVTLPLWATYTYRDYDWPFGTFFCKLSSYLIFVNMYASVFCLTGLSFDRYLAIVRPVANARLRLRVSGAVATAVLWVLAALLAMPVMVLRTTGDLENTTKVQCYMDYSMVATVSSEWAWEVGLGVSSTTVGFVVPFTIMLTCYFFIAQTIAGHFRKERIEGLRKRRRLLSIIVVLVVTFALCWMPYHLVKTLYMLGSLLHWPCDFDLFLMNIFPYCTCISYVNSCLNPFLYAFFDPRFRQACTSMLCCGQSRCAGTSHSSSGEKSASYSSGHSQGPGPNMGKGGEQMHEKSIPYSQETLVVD

The assay has as its target human APJ receptor (Homo sapiens (Human), UniProt P35414). Description: [35S]GTPγS binding assay on membranes from CHO cells stably expressing human APJ receptor. Conditions: read-out: Activity hAPJ SPA EC50 IP. The format is biochemical. In a few lines: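 Agonist-driven [35S]GTPγS (0.2 nM) binding was measured over 90 min at room temperature on human APJ-expressing CHO membranes with bead capture, in buffer containing 3 μM GDP, 200 mM NaCl and 5 mM MgCl2 (pH 7.5). Excess unlabelled GTPγS (100 μM) gave nonspecific signal; EC50 from non-linear fits.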
For orientation: GTPγS resists hydrolysis and so accumulates on activated G proteins.
For “(1S,2S)-1-isopropoxy-1-(5-methylpyrazin-2-yl)-N-(5-((2S,5S)-5-methyltetrahydrofuran-2-yl)-4-(tetrahydro-2H-pyran-4-yl)-4H-1,2,4-triazol-3-yl)propane-2-sulfonamide or (1S,2S)-1-isopropoxy-1-(5-methylpyrazin-2-yl)-N-(5-((2R,5R)-5-methyltetrahydrofuran-2-yl)-4-(tetrahydro-2H-pyran-4-yl)-4H-1,2,4-triazol-3-yl)propane-2-sulfonamide [Example 262.0]”, the EC50 was greater than 4200 nM.

Turning to “(1S,2S)-1-isopropoxy-1-(5-methylpyrazin-2-yl)-N-(5-((2S,5S)-5-methyltetrahydrofuran-2-yl)-4-(tetrahydro-2H-pyran-4-yl)-4H-1,2,4-triazol-3-yl)propane-2-sulfonamide or (1S,2S)-1-isopropoxy-1-(5-methylpyrazin-2-yl)-N-(5-((2R,5R)-5-methyltetrahydrofuran-2-yl)-4-(tetrahydro-2H-pyran-4-yl)-4H-1,2,4-triazol-3-yl)propane-2-sulfonamide [Example 263.0]”, the EC50 amounted to 460 nM.

For the substance “(1S,2S)-N-(4-(1,3-dimethoxy-2-propanyl)-5-((2R,5R)-5-methyltetrahydro-2-furanyl)-4H-1,2,4-triazol-3-yl)-1-(5-fluoro-2-pyrimidinyl)-1-(2-propanyloxy)-2-propanesulfonamide or (1S,2S)-N-(4-(1,3-dimethoxy-2-propanyl)-5-((2S,5S)-5-methyltetrahydro-2-furanyl)-4H-1,2,4-triazol-3-yl)-1-(5-fluoro-2-pyrimidinyl)-1-(2-propanyloxy)-2-propanesulfonamide [Example 360.0]”, the EC50 amounted to 310 nM.

In the case of “(1S,2S)-N-(4-(1,3-dimethoxy-2-propanyl)-5-((2R,5R)-5-methyltetrahydro-2-furanyl)-4H-1,2,4-triazol-3-yl)-1-(5-fluoro-2-pyrimidinyl)-1-(2-propanyloxy)-2-propanesulfonamide or (1S,2S)-N-(4-(1,3-dimethoxy-2-propanyl)-5-((2S,5S)-5-methyltetrahydro-2-furanyl)-4H-1,2,4-triazol-3-yl)-1-(5-fluoro-2-pyrimidinyl)-1-(2-propanyloxy)-2-propanesulfonamide [Example 361.0]”, the EC50 was 10 nM.

For the substance “(1S,2S)-N-(4-(1,3-dimethoxy-2-propanyl)-5-((2R,5R)-5-methyltetrahydro-2-furanyl)-4H-1,2,4-triazol-3-yl)-1-(5-methoxy-2-pyrimidinyl)-1-(2-propanyloxy)-2-propanesulfonamide or (1S,2S)-N-(4-(1,3-dimethoxy-2-propanyl)-5-((2S,5S)-5-methyltetrahydro-2-furanyl)-4H-1,2,4-triazol-3-yl)-1-(5-methoxy-2-pyrimidinyl)-1-(2-propanyloxy)-2-propanesulfonamide [Example 362.0]”, the EC50 is 390 nM.

For the substance “(1S,2S)-N-(4-(1,3-dimethoxy-2-propanyl)-5-((2R,5R)-5-methyltetrahydro-2-furanyl)-4H-1,2,4-triazol-3-yl)-1-(5-methoxy-2-pyrimidinyl)-1-(2-propanyloxy)-2-propanesulfonamide or (1S,2S)-N-(4-(1,3-dimethoxy-2-propanyl)-5-((2S,5S)-5-methyltetrahydro-2-furanyl)-4H-1,2,4-triazol-3-yl)-1-(5-methoxy-2-pyrimidinyl)-1-(2-propanyloxy)-2-propanesulfonamide [Example 363.0]”, the EC50 came out at 28 nM.

On to “(1S,2S)-N-(4-(1,3-dimethoxy-2-propanyl)-5-((2R,5R)-5-methyltetrahydro-2-furanyl)-4H-1,2,4-triazol-3-yl)-1-(5-methyl-2-pyrazinyl)-1-(2-propanyloxy)-2-propanesulfonamide or (1S,2S)-N-(4-(1,3-dimethoxy-2-propanyl)-5-((2S,5S)-5-methyltetrahydro-2-furanyl)-4H-1,2,4-triazol-3-yl)-1-(5-methyl-2-pyrazinyl)-1-(2-propanyloxy)-2-propanesulfonamide [Example 364.0]”, for which the EC50 amounted to 69 nM.

In the case of “(1S,2S)-N-(4-(1,3-dimethoxy-2-propanyl)-5-((2R,5R)-5-methyltetrahydro-2-furanyl)-4H-1,2,4-triazol-3-yl)-1-(5-methyl-2-pyrazinyl)-1-(2-propanyloxy)-2-propanesulfonamide or (1S,2S)-N-(4-(1,3-dimethoxy-2-propanyl)-5-((2S,5S)-5-methyltetrahydro-2-furanyl)-4H-1,2,4-triazol-3-yl)-1-(5-methyl-2-pyrazinyl)-1-(2-propanyloxy)-2-propanesulfonamide [Example 365.0]”, the EC50 came out at 72 nM.

As to “(1S,2S)-N-(4-(1,3-dimethoxy-2-propanyl)-5-((2R,5R)-5-methyltetrahydro-2-furanyl)-4H-1,2,4-triazol-3-yl)-1-(5-methyl-2-pyridinyl)-1-(2-propanyloxy)-2-propanesulfonamide or (1S,2S)-N-(4-(1,3-dimethoxy-2-propanyl)-5-((2S,5S)-5-methyltetrahydro-2-furanyl)-4H-1,2,4-triazol-3-yl)-1-(5-methyl-2-pyridinyl)-1-(2-propanyloxy)-2-propanesulfonamide [Example 366.0]”, the EC50 was determined as 680 nM.

As for “(1S,2S)-N-(4-(1,3-dimethoxy-2-propanyl)-5-((2R,5R)-5-methyltetrahydro-2-furanyl)-4H-1,2,4-triazol-3-yl)-1-(5-methyl-2-pyridinyl)-1-(2-propanyloxy)-2-propanesulfonamide or (1S,2S)-N-(4-(1,3-dimethoxy-2-propanyl)-5-((2S,5S)-5-methyltetrahydro-2-furanyl)-4H-1,2,4-triazol-3-yl)-1-(5-methyl-2-pyridinyl)-1-(2-propanyloxy)-2-propanesulfonamide [Example 367.0]”, the EC50 turned out to be 12 nM.

As to “(1S,2S)-N-(4-(1,3-dimethoxy-2-propanyl)-5-((2R,5R)-5-methyltetrahydro-2-furanyl)-4H-1,2,4-triazol-3-yl)-1-(5-methyl-2-pyrimidinyl)-1-(2-propanyloxy)-2-propanesulfonamide or (1S,2S)-N-(4-(1,3-dimethoxy-2-propanyl)-5-((2S,5S)-5-methyltetrahydro-2-furanyl)-4H-1,2,4-triazol-3-yl)-1-(5-methyl-2-pyrimidinyl)-1-(2-propanyloxy)-2-propanesulfonamide [Example 358.0]”, the EC50 came to 430 nM.

For “(1S,2S)-N-(4-(1,3-dimethoxy-2-propanyl)-5-((2R,5R)-5-methyltetrahydro-2-furanyl)-4H-1,2,4-triazol-3-yl)-1-(5-methyl-2-pyrimidinyl)-1-(2-propanyloxy)-2-propanesulfonamide or (1S,2S)-N-(4-(1,3-dimethoxy-2-propanyl)-5-((2S,5S)-5-methyltetrahydro-2-furanyl)-4H-1,2,4-triazol-3-yl)-1-(5-methyl-2-pyrimidinyl)-1-(2-propanyloxy)-2-propanesulfonamide [Example 359.0]”, the EC50 is 11 nM.

For the substance “(1S,2S)-N-(4-(2,6-dimethoxyphenyl)-5-((3R)-tetrahydro-3-furanyl)-4H-1,2,4-triazol-3-yl)-1-(5-methyl-2-pyridinyl)-1-(2-propanyloxy)-2-propanesulfonamide or (1S,2S)-N-(4-(2,6-dimethoxyphenyl)-5-((3S)-tetrahydro-3-furanyl)-4H-1,2,4-triazol-3-yl)-1-(5-methyl-2-pyridinyl)-1-(2-propanyloxy)-2-propanesulfonamide [Example 407.0]”, the EC50 is 10 nM.

Take “(1S,2S)-N-(4-(2,6-dimethoxyphenyl)-5-((S)-1,4-dioxan-2-yl)-4H-1,2,4-triazol-3-yl)-1-isopropoxy-1-(5-methylpyrimidin-2-yl)propane-2-sulfonamide and (1S,2S)-N-(4-(2,6-dimethoxyphenyl)-5-((R)-1,4-dioxan-2-yl)-4H-1,2,4-triazol-3-yl)-1-isopropoxy-1-(5-methylpyrimidin-2-yl)propane-2-sulfonamide [Example 256.0]”: the EC50 was found to be 15 nM.

“(1S,2S)-N-(4-(2,6-dimethoxyphenyl)-5-((S)-5,5-dimethyltetrahydrofuran-2-yl)-4H-1,2,4-triazol-3-yl)-1-isopropoxy-1-(5-methylpyrimidin-2-yl)propane-2-sulfonamide or (1S,2S)-N-(4-(2,6-dimethoxyphenyl)-5-((R)-5,5-dimethyltetrahydrofuran-2-yl)-4H-1,2,4-triazol-3-yl)-1-isopropxy-1-(5-methylpyrimidin-2-yl)propane-2-sulfonamide [Example 210.0]”: the EC50 came to 0.62 nM.

“(1S,2S)-N-(4-(4,6-dimethoxypyrimidin-5-yl)-5-((R)-5,5-dimethyltetrahydrofuran-3-yl)-4H-1,2,4-triazol-3-yl)-1-isopropoxy-1-(5-methylpyrimidin-2-yl)propane-2-sulfonamide or (1S,2S)-N-(4-(4,6-dimethoxypyrimidin-5-yl)-5-((S)-5,5-dimethyltetrahydrofuran-3-yl)-4H-1,2,4-triazol-3-yl)-1-isopropoxy-1-(5-methylpyrimidin-2-yl)propane-2-sulfonamide [Example 313.0]”: the EC50 was found to be 530 nM.

Turning to “(1S,2S)-N-(4-(4,6-dimethoxypyrimidin-5-yl)-5-((R)-5,5-dimethyltetrahydrofuran-3-yl)-4H-1,2,4-triazol-3-yl)-1-isopropoxy-1-(5-methylpyrimidin-2-yl)propane-2-sulfonamide or (1S,2S)-N-(4-(4,6-dimethoxypyrimidin-5-yl)-5-((S)-5,5-dimethyltetrahydrofuran-3-yl)-4H-1,2,4-triazol-3-yl)-1-isopropoxy-1-(5-methylpyrimidin-2-yl)propane-2-sulfonamide [Example 314.0]”, the EC50 came out at 71 nM.
